The source of these data is article PMC12631574, “Structure–activity relationships of hydrophobic small molecule irreversible inhibitors of tissue transglutaminase” (RSC Medicinal Chemistry, 2025).

For data set [1], the target named is T1, tissue transglutaminase (TG2), C-terminal His-tag TG2 (Homo sapiens, UniProt P21980).
T1 construct: host or cells: Novagen Rosetta 2 (DE3) E. coli
T1 sequence (P21980 1-687): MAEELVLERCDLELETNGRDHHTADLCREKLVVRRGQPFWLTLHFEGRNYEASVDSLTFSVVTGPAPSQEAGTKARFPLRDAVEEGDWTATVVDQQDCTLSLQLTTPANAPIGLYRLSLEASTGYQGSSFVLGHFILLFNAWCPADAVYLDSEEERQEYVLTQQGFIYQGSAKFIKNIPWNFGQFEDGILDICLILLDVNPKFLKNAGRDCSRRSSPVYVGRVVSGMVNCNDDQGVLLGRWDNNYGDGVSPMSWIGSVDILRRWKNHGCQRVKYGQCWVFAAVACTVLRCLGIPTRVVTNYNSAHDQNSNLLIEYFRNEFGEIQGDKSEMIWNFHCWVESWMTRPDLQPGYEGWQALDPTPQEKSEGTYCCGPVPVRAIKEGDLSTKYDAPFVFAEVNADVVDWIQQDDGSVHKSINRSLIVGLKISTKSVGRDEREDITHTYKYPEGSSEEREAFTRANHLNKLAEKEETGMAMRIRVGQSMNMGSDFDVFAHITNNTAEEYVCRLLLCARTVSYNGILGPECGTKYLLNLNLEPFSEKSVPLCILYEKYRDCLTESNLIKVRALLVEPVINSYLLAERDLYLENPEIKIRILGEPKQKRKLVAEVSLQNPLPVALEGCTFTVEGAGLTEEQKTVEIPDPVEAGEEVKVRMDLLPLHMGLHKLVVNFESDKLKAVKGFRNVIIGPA
The data set is described as follows: continuous AL5 hydrolysis assay of irreversible TG2 inhibition (kobs vs [I]/α). It is filed as biochemical.

The nature of data set [2]: solubility in inhibition assay conditions and stock solutions. It is filed as physicochemical. Particulars: inhibition assay mixture, DMSO not above 6%.
Data set [3] can be described thus: stability in human hepatocytes, at Pharmaron. It counts as in vitro ADME. Particulars: 20-donor, pooled; for hepatocyte CLint: read-out: In vitro CLint; for half-life: human, hepatocytes, read-out: In vitro t1/2.
The nature of data set [4]: parallel artificial membrane permeability assay (PAMPA), at Pharmaron. It counts as in vitro ADME. In general terms: The PAMPA barrier holds no transporters, so it reflects passive diffusion.
A short description of data set [5]: incubation in phosphate buffer with no hepatocytes present. Particulars: phosphate buffer 0.1 M, pH = 8.0, no hepatocytes present. It is filed as physicochemical.
The next data set relates to human hepatocytes. Further details: method as in PMID 36846370. Particulars: cited from earlier work.
A further data set deals with MDCK-MDR1 cells. Set-up: method as in PMID 39708924. Particulars: cited from earlier work.
Where [6] appears, read: inhibition efficiency, combined from kinact and KI.
The mark [7] stands for this setting: irreversible inhibition, AL5 100 μM, pH 6.9, 25 °C, triplicate.
Setting [8] is: supplement, kinetics data and fitting.
Setting [9] is: Pe in cm s^−1, lower value is more permeable, read-out: −log[Pe (cm s^−1)] (converted).

Read-outs that look alike come from different tables or passages of the source. Where only a bound is given, the exact number is not on record here.

In the case of `C=CC(=O)NCC(=O)N1CCN(C(=O)c2ccc(-c3ccc(C)cc3)cc2)CC1` [Compound 21i, N-2-[4-[((4′-Methyl-4-biphenyl)carbonyl)-1-piperazinyl]-2-oxoethyl]propenamide], the kinact/KI entry in data set [1] (setting [6]) is “INS”. In data set [1] (setting [7]), the KI entry was “INS” and the kinact entry is reported as “INS”. Besides, in data set [2], the “solubility in assay conditions” value is reported as “too insoluble in assay conditions”.

For `C=CC(=O)NCC(=O)N1CCN(C(=O)c2ccc(Cc3ccccc3)cc2)CC1` [Compound 22g, N-2-[4-[((4-Benzylphenyl)carbonyl)-1-piperazinyl]-2-oxoethyl]propenamide], the kinact in data set [1] is 0.0253 s⁻¹. For the same compound, the KI (inactivation) in data set [1] (setting [7]) and in data set [1] (setting [8]) was 58100 ± 9400 nM in each case. Further, in data set [1] (setting [8]), the kinact/KI is 26.1 ± 4.9 × 103 M-1min-1.

As to `C=CC(=O)NCC(=O)N1CCN(C(=O)c2ccc(Oc3ccccc3)cc2)CC1` [Compound 22h, N-2-[4-[((4-Phenoxyphenyl)carbonyl)-1-piperazinyl]-2-oxoethyl]propenamide], the kinact/KI entry in data set [1] (setting [6]) is on record as “INS”. Moreover, in data set [1] (setting [7]), the KI entry is reported as “INS” and the kinact result is “INS”. Moreover, the “solubility in assay conditions” value in data set [2] is recorded as “too insoluble in assay conditions”.

On to `C=CC(=O)NCC(=O)N1CCN(C(=O)c2ccc(Nc3ccccc3)cc2)CC1` [Compound 22i, N-2-[4-[(((4-Phenylamino)phenyl)carbonyl)-1-piperazinyl]-2-oxoethyl]propenamide], for which the maximal inactivation rate constant (kinact) in data set [1] was 0.0255 s⁻¹. In data set [1] (setting [7]), this compound had a KI (inactivation) of 92800 ± 43300 nM. Further, in data set [1] (setting [8]), the KI (inactivation) was 92800 ± 43300 nM and the kinact/KI was 16.5 ± 9.4 × 103 M-1min-1.

Turning to `C=CC(=O)NCC(=O)N1CCN(C(=O)C23CC4CC(CC(F)(C4)C2)C3)CC1` [Compound 25a, N-2-[4-[(3-Fluoroadamantanecarbonyl)-1-piperazinyl]-2-oxoethyl]propenamide], the KI (inactivation) in data set [1] (setting [7]) and in data set [1] (setting [8]) was 3150 ± 330 nM each time.

Take `C=CC(=O)NCC(=O)N1CCN(C(=O)C23CC4CC(CC(Cl)(C4)C2)C3)CC1` [Compound 25b, N-2-[4-[(3-Chloroadamantanecarbonyl)-1-piperazinyl]-2-oxoethyl]propenamide]: in data set [3], the hepatocyte CLint was determined as 6.91 µL/min/1e6 cells and the half-life was found to be 200 min. Moreover, in data set [1], the kinact was 0.0282 s⁻¹. The KI (inactivation) in data set [1] (setting [7]) came to 1790 ± 170 nM. In data set [1] (setting [8]), the KI (inactivation) worked out at 1790 ± 170 nM and the kinact/KI is 941 ± 101 × 103 M-1min-1. The “−log[Pe (cm s^−1)]” value in data set [4] (Pe in cm s^−1, lower value is more permeable) was found to be 5.85. Moreover, the Papp in data set [4] (read-out: Pe) worked out at 1.41 ×10⁻⁶ cm/s.

Consider `C=CC(=O)NCC(=O)N1CCN(C(=O)C23CC4CC(CC(Br)(C4)C2)C3)CC1` [Compound 25c, N-2-[4-[(3-Bromoadamantanecarbonyl)-1-piperazinyl]-2-oxoethyl]propenamide], for which the “stability in phosphate buffer” value in data set [5] is recorded as “degrade after 24 hours”. Moreover, the kinact in data set [1] is 0.0119 s⁻¹. In data set [1] (setting [7]), this compound gave a KI (inactivation) of 650 ± 80 nM. Further, in data set [1] (setting [8]), the KI (inactivation) was 648 ± 85 nM and the kinact/KI was 1104 ± 162 × 103 M-1min-1. For the same compound, the Papp in data set [4] (setting [9]) was 2.19 ×10⁻⁶ cm/s.

Turning to `C=CC(=O)NCC(=O)N1CCN(C(=O)C23CC4CC(C2)CC(c2ccccc2)(C4)C3)CC1` [Compound 25d, N-2-[4-[(3-Phenyladamantanecarbonyl)-1-piperazinyl]-2-oxoethyl]propenamide], in data set [3], the hepatocyte CLint was 29.3 µL/min/1e6 cells and the half-life is around 47 min. Besides, the kinact in data set [1] was 0.0112 s⁻¹. The compound also had a KI (inactivation) in data set [1] (setting [7]) of 690 ± 70 nM. In data set [1] (setting [8]), the KI (inactivation) amounted to 691 ± 67 nM and the kinact/KI is reported as 972 ± 103 × 103 M-1min-1. Moreover, the Papp in data set [4] (setting [9]) is 13.2 ×10⁻⁶ cm/s.

On to `C=CC(=O)NCC(=O)N1CCN(C(=O)C23CC4CC(CC(I)(C4)C2)C3)CC1` [Compound 29, N-2-[4-[(3-Iodoadamantanecarbonyl)-1-piperazinyl]-2-oxoethyl]propenamide], for which the “stability in phosphate buffer” value in data set [5] is given as “degrade after 24 hours”. In addition, in data set [3], the hepatocyte CLint was found to be 69.2 µL/min/1e6 cells and the half-life was found to be 20 min. Further, the maximal inactivation rate constant (kinact) in data set [1] was 0.0278 s⁻¹. This compound had a KI (inactivation) in data set [1] (setting [7]) of 1400 ± 120 nM. Also, in data set [1] (setting [8]), the KI (inactivation) was found to be 1400 ± 120 nM and the kinact/KI is 1195 ± 112 × 103 M-1min-1. In data set [4] (setting [9]), the Papp was 5.25 ×10⁻⁶ cm/s.

Consider `C=CC(=O)NCC(=O)N1CCN(S(=O)(=O)C23CC4CC(CC(C4)C2)C3)CC1` [Compound 38, N-[2-(4-((Adamantan-1-yl)sulfonyl)piperazin-1-yl)-2-oxoethyl]propenamide], for which, in data set [1], the kinact was 0.0162 s⁻¹. In data set [1] (setting [7]), this compound returned a KI (inactivation) of 7560 ± 1870 nM. In addition, in data set [1] (setting [8]), the KI (inactivation) was 7560 ± 1870 nM and the kinact/KI was 129 ± 36 × 103 M-1min-1.

For the compound `C=CC(=O)NCC(=O)N1CCN(C(=O)C23CC4CC(CC(C4)C2)C3)CC1` [EB-2-16, reference compound], in the data set on human hepatocytes, the “In vitro t1/2” value was >120 (ref. [27]) min. Further, in data set [1], the kinact was 0.0233 s⁻¹. Moreover, the KI (inactivation) in data set [1] (setting [7]) worked out at 2430 ± 190 nM. For the same compound, in data set [1] (setting [8]), the KI (inactivation) was found to be 2430 ± 190 nM and the kinact/KI is 576 ± 50 × 103 M-1min-1. The Papp in data set [4] (setting [9]) was 1.55 ×10⁻⁶ cm/s. Also, the “susceptibility to P-glycoprotein-mediated efflux” value with MDCK-MDR1 cells (MDCK-MDR1 cells) is listed as “not susceptible to P-glycoprotein-mediated efflux”. Also, the “diffusion across the membrane of MDCK-MDR1 cells” value in the data set on MDCK-MDR1 cells (bidirectional) is “excellent bidirectional diffusion”.

Broadly, the kinact is the maximal first-order rate at which the target is inactivated.
